Results as given in US20240325400A1, “Composition Comprising Skin-Specific T Cell Inhibitor as Active Ingredient for Prevention or Treatment of Atopic Dermatitis” (INDUSTRY-ACADEMIC COOPERATION FOUNDATION, YONSEI UNIVERSITY, priority 2021, published 2024).

Columns and labels:
skin-specific T cells [1] = assay: FACS of skin-specific T cells in human skin with atopic dermatitis lesions; assay type: cell-based; conditions: skin immune cells and skin lesions of atopic dermatitis patients, 50 μM and 100 μM, FIG. 13
Method: To verify the effect of the candidate drug on skin-specific T cells in human skin tissue, a single suspension was prepared using the skin from an atopic dermatitis patient. T cells were stained using anti-CD3, anti-CD4, anti-CD8 and anti-CD45 antibodies, and flow cytometry was performed on skin-specific T cells using anti-CD69 and anti-CD103 antibodies, which are skin TRM markers, thereby observing the changes in number and distribution of skin-specific T cells by the application of the drug.

[2] = system: cells isolated from normal skin tissue; assay: Toxicity assay using CCK-8 reagent (cell viability); assay type: cell-based; conditions: for cell viability: cells from normal skin tissue, overnight, CCK-8
Method: Thereafter, 10 μL of Cell Counting Kit-8 reagent (Dojindo Lot. PR863) was added to each well of the 96-well plate, and after 2 hours, the safety and toxicity of the drug to the normal skin tissue were evaluated by measuring the absorbance at […].

T cells in the spleen = assay: FACS of T cell fractions in spleen of atopic dermatitis mouse model; assay type: in vivo
Method: (§1) Then, in order to check changes in skin-specific T cells in each animal, single suspensions were prepared using the spleen, skin, and lymph nodes, and T-cells were stained using anti-CD3, anti-CD4, anti-CD8, and anti-CD45 antibodies. Flow cytometry was performed on skin-specific T cells using anti-CD69 and anti-CD103 antibodies, thereby observing the changes in number and distribution of skin-specific T cells by the application of the drug.

serum total IgE = assay: Serum total IgE by ELISA in atopic dermatitis mouse model; assay type: in vivo
Method: as §1
(§2) Blood was collected from the mouse heart and then centrifuged at 2,500 rpm for 15 minutes, and the obtained serum was used in the experiment. Then, total IgE was measured using the ELISA MAX™ Delux Set (BioLegend, San Diego, CA, USA) kit. Dermatophagoides farinae (DF)-specific IgE was measured by ELISA using a slight modification of the previously reported method. Briefly, 100 μL of 20 μg/mL DfE in 50 mmol/L carbonate buffer (pH 9.6, Sigma, St. Louis, MO, USA) per well was plated in a 96-well microtiter plate (Corning Inc., Corning)., NY, USA) and incubated overnight at 4° C. Each well was blocked with 3% skim milk in PBS (PBST) containing 0.05% Tween 20 for 1 hour at 37° C. After washing three times with PBST, each well was incubated with a serum sample (diluted to 1:20 [V/V] in 1% BSA) overnight at 4° C. […] The absorbance was measured at 450 nm with a microplate reader (TECAN, Salzburg, Austria).

skin-specific T cells [3] = assay: FACS of T cell fractions in skin of atopic dermatitis mouse model; assay type: in vivo
Method: as §1

[4] = system: T cells in skin-draining lymph nodes; assay: FACS of T cell fractions in skin-draining lymph nodes of atopic dermatitis mouse model; assay type: in vivo
Method: as §1

[5] = system: Dermatophagoides farinae (DF)-specific IgE; assay: Serum total DF-specific IgE by ELISA in atopic dermatitis mouse model; assay type: in vivo
Method: as §1
Blood was collected from the mouse heart, and then serum total DF-specific IgE (ng/mL) (A450) was measured in a 96-well plate (Corning Inc., Corning, NY, USA) using the ELISA MAX™ Delux Set (BioLegend, San Diego, CA, USA) kit.
as §2, with “C.” for “C. Each well was blocked with 3% skim milk in PBS (PBST) containing 0.05% Tween 20 for 1 hour at 37° C. After washing three times with PBST, each well was incubated with a serum sample (diluted to 1:20 [V/V] in 1% BSA) overnight at 4° C.”

[6] = system: NC/Nga mice with induced atopic dermatitis; assay: H&E staining of skin of NC/Nga mice (eosinophil count, epidermal thickness); assay type: in vivo, mouse
Method: as §1
In atopic dermatitis, the eosinophil count is observed to be characteristically high, making it a representative biological indicator that can explain the immunological mechanism of atopic dermatitis. Based on this fact, hematoxylin and eosin (H&E) staining in NC/Nga mice was performed. […] In addition, when atopic dermatitis occurs, the skin thickens due to an excessive inflammatory response.

[7] = 100 μM, compared to 0.1% dexamethasone

Substance: idelalisib
- proportion of skin-specific T cells (skin-specific T cells [1]): significantly decreased in both the 50 μM and 100 μM idelalisib groups in a dose-dependent manner
- cell viability ([2]; 50 μM): ≥ 90%
- cell viability ([2]; 100 μM): ≥ 90%
- toxicity in normal skin tissue ([2]; CCK-8, FIG. 4): no significant toxicity
- CD69+ T cells and CD103+ T cells in the spleen (T cells in the spleen; FIG. 11): decreased statistically significantly
- proportion of CD3+ and CD4+ T cells in the spleen (T cells in the spleen; FIG. 11): decreased in a dose-dependent manner
- CD69+ T cells and CD103+ T cells compared to positive control (T cells in the spleen; spleen, compared to 0.1% dexamethasone): significantly decreased in the idelalisib-treated group compared to the 0.1% dexamethasone group
- serum total IgE level (serum total IgE; 50 μM and 100 μM, ELISA, FIG. 7): decreased the total IgE level in a dose-dependent manner
- decrease in serum total IgE level compared to positive control (serum total IgE; [7]): significantly greater
- proportions of CD3+ and CD4+ skin-specific T cells in the skin (skin-specific T cells [3]; 50 μM and 100 μM, FIG. 12): significantly decreased in both the 50 μM and 100 μM idelalisib groups in a dose-dependent manner
- CD69+ T cells and CD103+ T cells in the skin tissues (skin-specific T cells [3]; FIG. 12): statistically significantly decreased
- proportions of skin-specific T cells compared to positive control (skin-specific T cells [3]; skin, compared to 0.1% dexamethasone): significantly decreased even compared to that in the 0.1% dexamethasone-treated group
- proportion of CD3+ T cells in skin-draining lymph nodes ([4]; 100 μM, FIG. 10A): lowest proportion of CD3+ T cells
- fraction of CD3+ CD4+ CD103+ T cells in skin-draining lymph nodes ([4]; 100 μM, FIG. 10B): statistically significantly lowest
- fraction of T cells expressing CD69 among CD3+ CD4+ T cells in skin-draining lymph nodes ([4]; FIG. 10B): tended to decrease
- total DF-specific IgE level ([5]; 50 μM and 100 μM, ELISA, FIG. 8): reduced the level of total DF-specific IgE in a dose-dependent manner
- total DF-specific IgE level compared to positive control [5, 7]: significantly decreased even compared to that in the 0.1% dexamethasone group
- epidermal thickness ([6]; FIG. 9B): decreased as the concentration of idelalisib increased
- eosinophil count ([6]; FIG. 9C): decreased depending on the idelalisib concentration
